Experiments:
Human ADAM17 = target: T1, Human ADAM17 (Homo sapiens, UniProt P78536); experiment: MMP and ADAM activity assay (fluorescence-based, cell-free): ADAM17; format: biochemical
T1 construct: purchased R&D Systems
Source text: (§1) Human ADAM17, ADAM10, and MMP17 were from R&D Systems (Minneapolis, MN, http://www.rndsystems.com), and human MMP1, MMP2, MMP3, MMP8, MMP9, MMP13, and MMP14 were from EMD Millipore. MMP1, MMP2, MMP8, MMP9, MMP13, and MMP17 were activated using p‐aminophenylmercuric acetate (Sigma‐Aldrich) before testing. Fluorogenic substrates for measuring activity of ADAM10 and ADAM17 [Nma‐[…](Dnp)r‐NH2, based on the cleavage site of TNF‐α]; MMP1, MMP9, MMP13, and MMP14 [Dnp‐P‐Cha‐GC(Me)HAK(N‐Me‐Abz)‐NH2]; MMP3 [MOCAc‐RPKPVE‐Nva‐WRK(Dnp)‐NH2]; and MMP2, MMP8, and MMP17 [MOCAc‐PLGL‐A2pr(Dnp)‐AR‐NH2] were all provided by Peptide Institute (Osaka, Japan, https://www.peptide.co.jp/en) and used as substrates. In addition, inhibitory activities were measured using LC/MS/MS with a GPIbα‐based substrate peptide ([…]), a C terminal‐based standard peptide ([…]), and an internal standard peptide ([…]). These peptides were synthetized by Scrum (Tokyo, Japan, http://www.scrum‐net.co.jp/english/top_en.htm).

human MMP2 = target: T2, human MMP2 (Homo sapiens, UniProt P08253); experiment: MMP and ADAM activity assay (fluorescence-based): MMP2; format: biochemical; conditions: cell-free fluorescence assay
T2 construct: purchased EMD Millipore
T2 sequence (P08253 110-660): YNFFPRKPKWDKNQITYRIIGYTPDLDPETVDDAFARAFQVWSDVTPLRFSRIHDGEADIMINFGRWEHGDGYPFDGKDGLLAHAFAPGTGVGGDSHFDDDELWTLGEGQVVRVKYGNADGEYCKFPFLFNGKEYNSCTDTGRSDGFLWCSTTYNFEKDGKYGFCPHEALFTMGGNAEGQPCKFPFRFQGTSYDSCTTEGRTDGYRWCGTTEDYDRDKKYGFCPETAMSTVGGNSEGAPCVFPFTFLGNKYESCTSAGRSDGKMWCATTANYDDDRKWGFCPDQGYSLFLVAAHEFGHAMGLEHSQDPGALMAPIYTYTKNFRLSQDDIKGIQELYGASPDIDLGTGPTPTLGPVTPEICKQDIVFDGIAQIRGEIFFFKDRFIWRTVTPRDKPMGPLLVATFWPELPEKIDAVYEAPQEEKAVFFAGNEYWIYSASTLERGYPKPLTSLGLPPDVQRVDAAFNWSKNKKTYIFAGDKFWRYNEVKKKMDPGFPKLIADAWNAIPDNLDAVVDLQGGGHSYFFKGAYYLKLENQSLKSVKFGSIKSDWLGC
Source text: as §1

human MMP3 = target: T3, human MMP3 (Homo sapiens, UniProt P08254); experiment: MMP and ADAM activity assay (fluorescence-based): MMP3; format: biochemical; conditions: cell-free fluorescence assay
T3 construct: purchased EMD Millipore
T3 sequence (P08254 100-477): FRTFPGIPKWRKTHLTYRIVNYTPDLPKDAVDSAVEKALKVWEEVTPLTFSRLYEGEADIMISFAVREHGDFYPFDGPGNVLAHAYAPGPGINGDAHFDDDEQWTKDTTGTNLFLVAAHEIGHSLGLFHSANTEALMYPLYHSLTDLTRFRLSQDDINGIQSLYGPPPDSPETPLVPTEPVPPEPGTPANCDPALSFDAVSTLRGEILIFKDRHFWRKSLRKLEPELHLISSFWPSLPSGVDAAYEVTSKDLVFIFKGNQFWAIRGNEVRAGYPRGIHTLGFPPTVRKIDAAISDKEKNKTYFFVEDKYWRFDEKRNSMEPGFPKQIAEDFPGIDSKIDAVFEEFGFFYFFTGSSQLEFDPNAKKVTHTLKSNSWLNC
Procedure: as §1, with “KP‐457 and GM‐6001 were tested for their ability to inhibit MMP‐ and ADAM‐catalyzed cleavage of substrates in a fluorescence‐based assay. Human” for “Human”

human MMP9 = target: T4, human MMP9 (Homo sapiens, UniProt P14780); experiment: MMP and ADAM activity assay (fluorescence-based): MMP9; format: biochemical; conditions: cell-free fluorescence assay
T4 construct: purchased EMD Millipore
T4 sequence (P14780 107-707 limits assumed): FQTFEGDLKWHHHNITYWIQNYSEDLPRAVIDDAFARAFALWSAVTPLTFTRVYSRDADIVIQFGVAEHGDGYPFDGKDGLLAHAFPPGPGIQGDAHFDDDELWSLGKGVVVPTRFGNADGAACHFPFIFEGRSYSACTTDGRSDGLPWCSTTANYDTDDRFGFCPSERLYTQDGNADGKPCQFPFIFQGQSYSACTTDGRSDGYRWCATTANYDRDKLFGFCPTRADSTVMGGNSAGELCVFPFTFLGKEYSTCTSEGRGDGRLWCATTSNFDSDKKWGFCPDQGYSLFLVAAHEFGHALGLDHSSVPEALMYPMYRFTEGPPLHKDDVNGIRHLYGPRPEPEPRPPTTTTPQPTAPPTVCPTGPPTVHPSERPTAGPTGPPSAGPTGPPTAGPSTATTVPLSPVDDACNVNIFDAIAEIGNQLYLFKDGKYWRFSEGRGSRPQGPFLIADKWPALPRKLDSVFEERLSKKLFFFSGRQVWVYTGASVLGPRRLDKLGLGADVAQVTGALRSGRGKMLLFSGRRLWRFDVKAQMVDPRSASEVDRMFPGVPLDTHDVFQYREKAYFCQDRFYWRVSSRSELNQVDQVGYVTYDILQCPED
Source text: as §1

human MMP14 = target: T5, human MMP14 (Homo sapiens, UniProt P50281); experiment: MMP and ADAM activity assay (fluorescence-based): MMP14; format: biochemical; conditions: cell-free fluorescence assay
T5 construct: purchased EMD Millipore
Procedure: as §1, with “KP‐457 and GM‐6001 were tested for their ability to inhibit MMP‐ and ADAM‐catalyzed cleavage of substrates in a fluorescence‐based assay. Human” for “Human”

human MMP17 = target: T6, human MMP17 (Homo sapiens, UniProt Q9ULZ9); experiment: MMP and ADAM activity assay (fluorescence-based): MMP17; format: biochemical; conditions: cell-free fluorescence assay
T6 construct: purchased R&D Systems
T6 sequence (Q9ULZ9 126-565 limits assumed): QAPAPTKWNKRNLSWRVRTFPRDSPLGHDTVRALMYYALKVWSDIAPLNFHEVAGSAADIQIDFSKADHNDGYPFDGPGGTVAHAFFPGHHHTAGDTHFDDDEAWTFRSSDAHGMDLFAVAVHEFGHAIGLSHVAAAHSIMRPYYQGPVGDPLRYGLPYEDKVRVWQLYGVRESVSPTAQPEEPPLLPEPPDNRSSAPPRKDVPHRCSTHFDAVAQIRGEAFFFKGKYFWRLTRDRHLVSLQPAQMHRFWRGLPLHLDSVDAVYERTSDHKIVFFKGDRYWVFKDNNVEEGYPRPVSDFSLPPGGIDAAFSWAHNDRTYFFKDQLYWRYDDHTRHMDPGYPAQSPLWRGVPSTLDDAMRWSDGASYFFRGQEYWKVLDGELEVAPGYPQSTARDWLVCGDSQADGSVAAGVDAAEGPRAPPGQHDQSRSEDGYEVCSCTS
Procedure: as §1, with “KP‐457 and GM‐6001 were tested for their ability to inhibit MMP‐ and ADAM‐catalyzed cleavage of substrates in a fluorescence‐based assay. Human” for “Human”

human washed platelets = experiment: CCCP-induced GPIbα shedding from washed platelets; format: cell-based; conditions: CCCP-treated human platelets
Procedure: Flow cytometric analysis was performed as previously described. Briefly, iPSC‐ and ESC‐derived MKs on days 22–24 and platelets in their supernatants were stained with combinations of antibodies for 30 minutes on ice (for MKs) or at room temperature (for platelets). Samples of MKs/platelets were then washed, diluted with staining medium (phosphate‐buffered saline containing 3% fetal bovine serum), and analyzed using flow cytometry (FACSAria; BD). Trucount tubes (BD) were used to quantify the MKs and platelets.
Washed platelets were prepared as described elsewhere.

platelet aggregation = experiment: Platelet aggregation induced by thrombin or collagen; format: cell-based
[1] = tested on: iPSC platelets, vWF/GPIbα-dependent aggregation; experiment: Flow cytometry-based platelet aggregation assay (ristocetin); format: cell-based, human; conditions: 15 µmol/l KP-457 during generation; 2 mg/ml ristocetin; vs. generated in its absence
Procedure: Flow cytometry platelet aggregation assays were performed as recently described. Aliquots of iPSC platelets, imMKCL platelets, or fresh washed human platelets were stained with anti‐CD9‐APC or anti‐CD9‐V450, and CD41a^+ platelets were counted using flow cytometry. Next, aliquots of platelets stained using anti‐CD9‐APC were mixed with platelets stained using anti‐CD9‐V450 at a 1:1 ratio (1–4 ×10^5 cells/ml each) and suspended in Tyrode‐HEPES solution containing […] PPACK (a thrombin inhibitor), 10% filtered human plasma, and 3 mmol/l CaCl2. The mixed platelets were stimulated with 2 mg/ml ristocetin or 100 µmol/l TRAP6 and 50 µmol/l ADP for 10 minutes at 37°C while swirling, fixed, and analyzed using flow cytometry. To quantify platelet aggregation, an index of double‐colored events (%) was calculated using the following formula described elsewhere: […]

[2] = tested on: thrombus formation in NOG mice; experiment: In vivo imaging of thrombus formation by transfused iPSC platelets; design: species or system mouse; conditions: 1 × 10^7 CD41a+ iPSC platelets generated with or without KP-457, irradiated NOG mice, laser injury; p = .0556
Procedure: The procedure was identical to that in the previous report. Small vessels (<25 μm in diameter) within mesenteric capillaries of male NOD/SCID/IL‐2Rg‐null (NOG) mice were evaluated. NOG mice were purchased from the Central Institute for Experimental Animals (Kawasaki, Kanagawa, Japan, http://www.ciea.or.jp/en/index.html).

[3] = Good laboratory practice genotoxicity studies; conditions: data not shown

T1 sequence (P78536 215-824): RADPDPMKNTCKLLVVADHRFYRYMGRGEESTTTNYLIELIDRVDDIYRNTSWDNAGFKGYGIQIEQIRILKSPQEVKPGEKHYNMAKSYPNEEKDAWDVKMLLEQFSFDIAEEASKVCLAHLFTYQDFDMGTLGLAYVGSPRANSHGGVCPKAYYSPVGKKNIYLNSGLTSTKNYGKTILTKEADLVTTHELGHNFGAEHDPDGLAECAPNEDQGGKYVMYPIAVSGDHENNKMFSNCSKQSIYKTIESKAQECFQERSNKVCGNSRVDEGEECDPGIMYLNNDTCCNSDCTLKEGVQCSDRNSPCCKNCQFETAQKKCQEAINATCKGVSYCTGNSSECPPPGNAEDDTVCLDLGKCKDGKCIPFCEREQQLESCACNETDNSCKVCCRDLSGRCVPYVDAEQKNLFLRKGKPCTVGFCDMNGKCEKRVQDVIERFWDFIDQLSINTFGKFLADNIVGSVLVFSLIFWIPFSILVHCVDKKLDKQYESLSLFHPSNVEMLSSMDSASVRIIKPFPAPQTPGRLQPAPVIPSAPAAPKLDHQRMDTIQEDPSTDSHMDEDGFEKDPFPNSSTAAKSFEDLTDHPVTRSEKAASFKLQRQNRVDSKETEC

CC#CCOc1ccc(S(=O)(=O)CC(c2ccc(CNS(C)(=O)=O)cc2)N(O)C=O)cc1 (stereo not shown) [KP-457, N‐(2‐{[4‐(but‐2‐yn‐1‐yloxy)phenyl]sulfonyl}‐1‐[4‐(methylsulfonamidomethyl)phenyl]ethyl)‐N‐hydroxyformamide]
potency relative to GM-6001, inhibition of cleavage of the TNF-α sequence (Human ADAM17; cell-free enzyme assay): 10 times
selectivity for ADAM17 over other MMPs and ADAM10 (Human ADAM17; cell-free enzyme assays): > 50 times
IC50 (Human ADAM17; cell-free fluorescence assay, TNF-α cleavage site substrate): 0.0111 µM
IC50 (human MMP2): 0.717 µM
IC50 (human MMP3): 9.76 µM
IC50 (human MMP9): 5.41 µM
IC50 (human MMP14): 2.14 µM
IC50 (human MMP17): 7.1 µM
potency relative to GM-6001, inhibition of GPIbα shedding in the cellular assay (human washed platelets): 10 times
effect on platelet aggregation induced by thrombin or collagen (platelet aggregation): no adverse effects
ristocetin-induced vWF/GPIbα-dependent aggregation of iPSC platelets generated with inhibitor [1]: greater aggregation capability
iPSC platelets contributing to thrombus formation in vivo [2]: higher number of iPSC platelets contributed to thrombus formation
genotoxicity [3]: neither genotoxicity nor systemic toxicity
